# Measured values from PMC5218480 (PLoS ONE, 2017).
# Test system: MV-4-11 cells
# Assay: Gene expression microarray analysis (Affymetrix PrimeView) and GSEA
# Format: cell-based, human
# Set-up: RFU PODN (11730768_x_at) / Fold change /veh PODN (11730768_x_at) / RFU LINC00158 (11744669_a_at) / Fold change /veh LINC00158 (11744669_a_at) / RFU DUSP10 (11751237_a_at) / Fold change /veh DUSP10 (11751237_a_at) / RFU ID3 (11757404_x_at) / Fold change /veh ID3 (11757404_x_at) / RFU PLEKHG5 (11737974_s_at) / Fold change /veh PLEKHG5 (11737974_s_at) / RFU LRRC4B (11730491_at) / Fold change /veh LRRC4B (11730491_at) / RFU GIMAP4 (11747438_a_at) / Fold change /veh GIMAP4 (11747438_a_at) / RFU KRT8 (11758183_x_at) / Fold change /veh KRT8 (11758183_x_at) / RFU CNN1 (11734310_a_at) / Fold change /veh CNN1 (11734310_a_at) / RFU VPS37D (11726825_at) / Fold change /veh VPS37D (11726825_at) / RFU C10orf10 (11716522_x_at) / Fold change /veh C10orf10 (11716522_x_at) / RFU KIR2DL2 /// KIR2DL4 /// KIR2DL5A /// KIR2DL5B /// KIR2DS1 /// KIR2DS2 /// KIR2DS3 /// KIR2DS4 /// KIR3DL3 /// KIR3DL3 /// KIR3DS1 (11738374_at) / Fold change /veh KIR2DL2 /// KIR2DL4 /// KIR2DL5A /// KIR2DL5B /// KIR2DS1 /// KIR2DS2 /// KIR2DS3 /// KIR2DS4 /// KIR3DL3 /// KIR3DL3 /// KIR3DS1 (11738374_at) / RFU C1QL1 (11718748_at) / Fold change /veh C1QL1 (11718748_at) / RFU TMPRSS4 (11747572_a_at) / Fold change /veh TMPRSS4 (11747572_a_at) / RFU HAMP (11756126_x_at) / Fold change /veh HAMP (11756126_x_at) / RFU RNFT2 (11725882_a_at) / Fold change /veh RNFT2 (11725882_a_at) / RFU NR4A2 (11747474_a_at) / Fold change /veh NR4A2 (11747474_a_at) / RFU ABCC12 (11746883_a_at) / Fold change /veh ABCC12 (11746883_a_at) / RFU TMEM136 (11760407_x_at) / Fold change /veh TMEM136 (11760407_x_at) / RFU CLDN22 /// WWC2 (11732394_at) / Fold change /veh CLDN22 /// WWC2 (11732394_at) / RFU HLA-DPB1 (11760878_x_at) / Fold change /veh HLA-DPB1 (11760878_x_at) / RFU SPINT1 (11716480_a_at) / Fold change /veh SPINT1 (11716480_a_at) / RFU GAP43 (11754022_s_at) / Fold change /veh GAP43 (11754022_s_at) / RFU A4GNT (11735810_at) / Fold change /veh A4GNT (11735810_at) / RFU PRB3 (11715151_x_at) / Fold change /veh PRB3 (11715151_x_at) / RFU TUBB4B (11761932_at) / Fold change /veh TUBB4B (11761932_at) / RFU CAPN14 (11732068_a_at) / Fold change /veh CAPN14 (11732068_a_at) / RFU TMCC2 (11721928_a_at) / Fold change /veh TMCC2 (11721928_a_at) / RFU IRGQ (11745062_a_at) / Fold change /veh IRGQ (11745062_a_at) / RFU FAM174B (11720279_a_at) / Fold change /veh FAM174B (11720279_a_at) / RFU TMPRSS4 (11748680_a_at) / Fold change /veh TMPRSS4 (11748680_a_at) / RFU FAM212B (11763350_a_at) / Fold change /veh FAM212B (11763350_a_at) / RFU PLEKHG5 (11743358_a_at) / Fold change /veh PLEKHG5 (11743358_a_at) / RFU ZSCAN30 (11745921_a_at) / Fold change /veh ZSCAN30 (11745921_a_at) / RFU CMKLR1 (11741424_a_at) / Fold change /veh CMKLR1 (11741424_a_at) / RFU LOC101060620 /// MAPK8IP1 (11723275_at) / Fold change /veh LOC101060620 /// MAPK8IP1 (11723275_at) / RFU SPTSSB (11747773_x_at) / Fold change /veh SPTSSB (11747773_x_at) / RFU PRSS12 (11739890_at) / Fold change /veh PRSS12 (11739890_at) / RFU BIN1 (11741810_x_at) / Fold change /veh BIN1 (11741810_x_at) / RFU WNT11 (11732464_a_at) / Fold change /veh WNT11 (11732464_a_at) / RFU C10orf10 (11716521_a_at) / Fold change /veh C10orf10 (11716521_a_at) / RFU C5orf56 (11738089_at) / Fold change /veh C5orf56 (11738089_at) / RFU CYB561 (11721691_x_at) / Fold change /veh CYB561 (11721691_x_at) / RFU ANKRD19P (11752326_a_at) / Fold change /veh ANKRD19P (11752326_a_at) / RFU OR2T12 /// OR2T33 /// OR2T8 (11738714_s_at) / Fold change /veh OR2T12 /// OR2T33 /// OR2T8 (11738714_s_at) / RFU VCAN (11748164_a_at) / Fold change /veh VCAN (11748164_a_at) / RFU JSRP1 (11732532_at) / Fold change /veh JSRP1 (11732532_at) / RFU KRTAP10-11 (11738290_x_at) / Fold change /veh KRTAP10-11 (11738290_x_at) / RFU MYO3A (11730013_a_at) / Fold change /veh MYO3A (11730013_a_at) / RFU EBF3 (11725865_a_at) / Fold change /veh EBF3 (11725865_a_at) / RFU CAMK2N1 (11719241_x_at) / Fold change /veh CAMK2N1 (11719241_x_at) / RFU C5orf56 (11738088_a_at) / Fold change /veh C5orf56 (11738088_a_at) / RFU OLFML3 (11715873_a_at) / Fold change /veh OLFML3 (11715873_a_at) / RFU LOC100653217 /// NTM (11731650_a_at) / Fold change /veh LOC100653217 /// NTM (11731650_a_at) / RFU MAPK11 (11762145_a_at) / Fold change /veh MAPK11 (11762145_a_at) / RFU FIZ1 (11724087_x_at) / Fold change /veh FIZ1 (11724087_x_at) / RFU OASL (11726364_x_at) / Fold change /veh OASL (11726364_x_at) / RFU SOX15 (11748057_x_at) / Fold change /veh SOX15 (11748057_x_at) / RFU CD79A (11719716_a_at) / Fold change /veh CD79A (11719716_a_at) / RFU HIST1H1D (11736915_at) / Fold change /veh HIST1H1D (11736915_at) / RFU CASKIN2 (11723855_a_at) / Fold change /veh CASKIN2 (11723855_a_at) / RFU LOC730098 (11760151_x_at) / Fold change /veh LOC730098 (11760151_x_at) / RFU OR4N2 (11742367_at) / Fold change /veh OR4N2 (11742367_at) / RFU PRRT2 (11749266_a_at) / Fold change /veh PRRT2 (11749266_a_at) / RFU SNX32 (11753110_a_at) / Fold change /veh SNX32 (11753110_a_at) / RFU CDHR5 (11726645_a_at) / Fold change /veh CDHR5 (11726645_a_at) / RFU RCAN1 (11760418_a_at) / Fold change /veh RCAN1 (11760418_a_at) / RFU FAM167A (11723789_a_at) / Fold change /veh FAM167A (11723789_a_at) / RFU FAM26E (11764081_at) / Fold change /veh FAM26E (11764081_at) / RFU ISYNA1 (11749810_s_at) / Fold change /veh ISYNA1 (11749810_s_at) / RFU ACY1 (11761880_at) / Fold change /veh ACY1 (11761880_at) / RFU 11764098_at / Fold change /veh 11764098_at / RFU SAMD14 (11745864_x_at) / Fold change /veh SAMD14 (11745864_x_at) / RFU NPB (11741838_a_at) / Fold change /veh NPB (11741838_a_at) / RFU TMPRSS6 (11731388_a_at) / Fold change /veh TMPRSS6 (11731388_a_at) / RFU KRTAP10-2 (11738614_at) / Fold change /veh KRTAP10-2 (11738614_at) / RFU ARHGAP8 /// PRR5-ARHGAP8 (11727945_x_at) / Fold change /veh ARHGAP8 /// PRR5-ARHGAP8 (11727945_x_at) / RFU KRTAP5-7 /// NADSYN1 (11734609_at) / Fold change /veh KRTAP5-7 /// NADSYN1 (11734609_at) / RFU RASL12 (11751679_a_at) / Fold change /veh RASL12 (11751679_a_at) / RFU CDKN2B (11736163_a_at) / Fold change /veh CDKN2B (11736163_a_at) / RFU PRF1 (11729649_at) / Fold change /veh PRF1 (11729649_at) / RFU, ZNF638 /// ZNF638-IT1 / Fold change vs veh, ZNF638 /// ZNF638-IT1 / RFU, PANK3 / Fold change vs veh, PANK3 / RFU, SH3YL1 / Fold change vs veh, SH3YL1 / RFU, ZEB2 / Fold change vs veh, ZEB2 / RFU, NRIP1 / Fold change vs veh, NRIP1 / RFU, PTTG1IP / Fold change vs veh, PTTG1IP / RFU, CAPN2 / Fold change vs veh, CAPN2 / RFU, MED14 / Fold change vs veh, MED14 / RFU, SNORA58 / Fold change vs veh, SNORA58 / RFU, C1orf63 / Fold change vs veh, C1orf63 / RFU, LRRFIP1 / Fold change vs veh, LRRFIP1 / RFU, NDUFAF7 / Fold change vs veh, NDUFAF7 / RFU, SLC12A2 / Fold change vs veh, SLC12A2 / RFU, IBTK / Fold change vs veh, IBTK / RFU, ESF1 / Fold change vs veh, ESF1 / Fold change vs veh, TMEM50B / RFU, TAOK1 / Fold change vs veh, TAOK1 / RFU, ACBD3 / Fold change vs veh, ACBD3 / RFU, TMA16 / Fold change vs veh, TMA16 / RFU, RWDD3 / Fold change vs veh, RWDD3 / RFU, BCAT1 / Fold change vs veh, BCAT1 / RFU, EDEM3 / Fold change vs veh, EDEM3 / RFU, TMEM33 / Fold change vs veh, TMEM33 / RFU, WDR75 / Fold change vs veh, WDR75 / RFU, AHCTF1 / Fold change vs veh, AHCTF1 / RFU, TFRC / Fold change vs veh, TFRC / RFU, ZDHHC17 / Fold change vs veh, ZDHHC17 / RFU, NOM1 / Fold change vs veh, NOM1 / RFU, ARL8B / Fold change vs veh, ARL8B / RFU, ZBTB11 / Fold change vs veh, ZBTB11 / RFU, TAMM41 / Fold change vs veh, TAMM41 / RFU, KIAA1704 /// LOC100996395 / Fold change vs veh, KIAA1704 /// LOC100996395 / RFU, ING1 / Fold change vs veh, ING1 / RFU, TRMT61B / Fold change vs veh, TRMT61B / RFU, FUBP3 / Fold change vs veh, FUBP3 / RFU, TP53 / Fold change vs veh, TP53 / RFU, TNKS2 / Fold change vs veh, TNKS2 / RFU, ZFP14 / Fold change vs veh, ZFP14 / RFU, ACTR2 / Fold change vs veh, ACTR2 / RFU, PPP3R1 / Fold change vs veh, PPP3R1 / RFU, PIK3R1 / Fold change vs veh, PIK3R1 / RFU, HNRNPA1 / Fold change vs veh, HNRNPA1 / RFU, RNF170 / Fold change vs veh, RNF170 / RFU, ZNF28 / Fold change vs veh, ZNF28 / RFU, RNGTT / Fold change vs veh, RNGTT / RFU, OGT / Fold change vs veh, OGT / RFU, BRD1 / Fold change vs veh, BRD1 / RFU, MARS / Fold change vs veh, MARS / RFU, ZNF655 / Fold change vs veh, ZNF655 / RFU, FAHD1 / Fold change vs veh, FAHD1 / RFU, BDP1 / Fold change vs veh, BDP1 / RFU, LRRCC1 / Fold change vs veh, LRRCC1 / RFU, ARID1A / Fold change vs veh, ARID1A / RFU, ZNF146 / Fold change vs veh, ZNF146 / RFU, ZNF330 / Fold change vs veh, ZNF330 / RFU, GPN3 / Fold change vs veh, GPN3 / RFU, C9orf123 / Fold change vs veh, C9orf123 / RFU, N4BP2L2 / Fold change vs veh, N4BP2L2 / RFU, ARFIP1 / Fold change vs veh, ARFIP1 / RFU, FAM179B / Fold change vs veh, FAM179B / RFU, BCL10 / Fold change vs veh, BCL10 / RFU, UHRF1BP1L / Fold change vs veh, UHRF1BP1L / RFU, BET1 / Fold change vs veh, BET1 / RFU, CNOT2 / Fold change vs veh, CNOT2 / RFU, ZNF268 / Fold change vs veh, ZNF268 / Fold change vs veh, ZNF507 / RFU, DGCR2 / Fold change vs veh, DGCR2 / RFU, WDSUB1 / Fold change vs veh, WDSUB1 / Fold change vs veh, HSP90B1 /// MIR3652 / RFU, ADSS / Fold change vs veh, ADSS / RFU, GK / Fold change vs veh, GK / RFU, ZNF148 / Fold change vs veh, ZNF148 / RFU, TAF9 / Fold change vs veh, TAF9 / RFU, SLC1A5 / Fold change vs veh, SLC1A5 / RFU, SLMO2 / Fold change vs veh, SLMO2 / RFU, ABCC4 / Fold change vs veh, ABCC4 / RFU, LOC101060439 /// RAP1B / Fold change vs veh, LOC101060439 /// RAP1B / RFU, RFX7 / Fold change vs veh, RFX7 / RFU, GTPBP10 / Fold change vs veh, GTPBP10 / RFU, CNEP1R1 / Fold change vs veh, CNEP1R1 / RFU, BIVM-ERCC5 /// ERCC5 / Fold change vs veh, BIVM-ERCC5 /// ERCC5 / RFU, ILF3 / Fold change vs veh, ILF3 / RFU 11762660_at / Fold change /veh 11762660_at / RFU VCAN (11757783_s_at) / Fold change /veh VCAN (11757783_s_at) / RFU DDX43 (11728927_at) / Fold change /veh DDX43 (11728927_at) / RFU KRT8 (11758188_x_at) / Fold change /veh KRT8 (11758188_x_at) / RFU NKD1 (11759106_at) / Fold change /veh NKD1 (11759106_at) / RFU SRD5A1 (11742802_a_at) / Fold change /veh SRD5A1 (11742802_a_at) / RFU TPSAB1 /// TPSB2 (11721975_s_at) / Fold change /veh TPSAB1 /// TPSB2 (11721975_s_at) / RFU GSTM3 (11746129_a_at) / Fold change /veh GSTM3 (11746129_a_at) / RFU IL23R (11737362_x_at) / Fold change /veh IL23R (11737362_x_at) / RFU TMEM51 (11727254_a_at) / Fold change /veh TMEM51 (11727254_a_at) / RFU PIWIL2 (11732686_x_at) / Fold change /veh PIWIL2 (11732686_x_at) / RFU ORM1 (11744905_x_at) / Fold change /veh ORM1 (11744905_x_at) / RFU CCDC152 (11743942_at) / Fold change /veh CCDC152 (11743942_at) / RFU ECM1 (11717891_a_at) / Fold change /veh ECM1 (11717891_a_at) / RFU IL23R (11748794_a_at) / Fold change /veh IL23R (11748794_a_at) / RFU TNFAIP8L3 (11732012_x_at) / Fold change /veh TNFAIP8L3 (11732012_x_at) / RFU MBOAT4 (11741988_at) / Fold change /veh MBOAT4 (11741988_at) / RFU 11764193_at / Fold change /veh 11764193_at / RFU TMEM53 (11763286_at) / Fold change /veh TMEM53 (11763286_at) / RFU MAGEB2 (11727129_at) / Fold change /veh MAGEB2 (11727129_at) / RFU TMEM200A (11744735_a_at) / Fold change /veh TMEM200A (11744735_a_at) / RFU CCDC152 (11751479_a_at) / Fold change /veh CCDC152 (11751479_a_at) / RFU FAM211A (11726209_a_at) / Fold change /veh FAM211A (11726209_a_at) / RFU RGS16 (11746705_a_at) / Fold change /veh RGS16 (11746705_a_at) / RFU VCAN (11755009_s_at) / Fold change /veh VCAN (11755009_s_at) / RFU RHOB (11743442_s_at) / Fold change /veh RHOB (11743442_s_at) / RFU RGS16 (11720943_a_at) / Fold change /veh RGS16 (11720943_a_at) / RFU RGS16 (11720944_at) / Fold change /veh RGS16 (11720944_at) / RFU, VPS4B / Fold change vs veh, VPS4B / RFU, CREB1 / Fold change vs veh, CREB1 / RFU, DNAJC13 / Fold change vs veh, DNAJC13 / RFU, GNAQ / Fold change vs veh, GNAQ / RFU, CDK5R1 / Fold change vs veh, CDK5R1 / RFU, ZRANB3 / Fold change vs veh, ZRANB3 / RFU, CUL4A / Fold change vs veh, CUL4A / RFU, CCNY / Fold change vs veh, CCNY / RFU, UFL1 / Fold change vs veh, UFL1 / RFU, COG3 / Fold change vs veh, COG3 / RFU, DIAPH2 / Fold change vs veh, DIAPH2 / RFU, SKA2 / Fold change vs veh, SKA2 / RFU, AFF3 / Fold change vs veh, AFF3 / RFU, LMF1 / Fold change vs veh, LMF1 / RFU, IPO11 / Fold change vs veh, IPO11 / RFU, DFFB / Fold change vs veh, DFFB / RFU, FOXP1 / Fold change vs veh, FOXP1 / RFU, CARD8 / Fold change vs veh, CARD8 / RFU, STRN3 / Fold change vs veh, STRN3 / RFU, ADK / Fold change vs veh, ADK / RFU, RASSF2 / Fold change vs veh, RASSF2 / RFU, WIPF1 / Fold change vs veh, WIPF1 / RFU, LARP1B / Fold change vs veh, LARP1B / RFU, RASA1 / Fold change vs veh, RASA1 / RFU, RB1 / Fold change vs veh, RB1 / RFU, PPFIA1 / Fold change vs veh, PPFIA1 / RFU, MAT2A / Fold change vs veh, MAT2A / RFU, CCT5 / Fold change vs veh, CCT5 / RFU, WDR92 / Fold change vs veh, WDR92 / RFU, CUX1 / Fold change vs veh, CUX1 / RFU, TTC7A / Fold change vs veh, TTC7A / RFU, TMEM135 / Fold change vs veh, TMEM135 / RFU, DEPTOR / Fold change vs veh, DEPTOR / RFU, CPM / Fold change vs veh, CPM / RFU, DNAJB6 / Fold change vs veh, DNAJB6 / RFU, CACNA2D3 / Fold change vs veh, CACNA2D3 / RFU, DTX4 / Fold change vs veh, DTX4 / RFU, TFCP2 / Fold change vs veh, TFCP2 / RFU, GMCL1 /// GMCL1P1 / Fold change vs veh, GMCL1 /// GMCL1P1 / RFU, AEBP2 / Fold change vs veh, AEBP2 / RFU, SNHG1 /// SNORD22 /// SNORD25 /// SNORD26 /// SNORD27 /// SNORD28 /// SNORD29 /// SNORD31 / Fold change vs veh, SNHG1 /// SNORD22 /// SNORD25 /// SNORD26 /// SNORD27 /// SNORD28 /// SNORD29 /// SNORD31 / Fold change (Aza/veh), C12orf56 (ProbeSet 11735607_a_at) / Fold change (ACY-1035/veh), C12orf56 (ProbeSet 11735607_a_at) / Fold change (Aza/veh), FGFR1OP (ProbeSet 11751329_s_at) / Fold change (ACY-1035/veh), FGFR1OP (ProbeSet 11751329_s_at) / Fold change (Aza/veh), VPS36 (ProbeSet 11739960_a_at) / Fold change (ACY-1035/veh), VPS36 (ProbeSet 11739960_a_at) / RFU SYPL1 (11715823_x_at) / Fold change /veh SYPL1 (11715823_x_at) / RFU IGFBP7 (11715501_s_at) / Fold change /veh IGFBP7 (11715501_s_at) / RFU REEP3 (11722064_at) / Fold change /veh REEP3 (11722064_at) / RFU IGLL1 (11728026_x_at) / Fold change /veh IGLL1 (11728026_x_at): dose or concentration left out as unconfirmed
# Conditions: MV-4-11 cells, 48 hours
smiles,measurement,value
Nc1ccc(-c2cccs2)cc1NC(=O)c1ccc2c(c1)cc(C1CC1)n2CCN1CCOCC1 [ACY-1035],RFU IRGQ (11745062_a_at),18.74 RFU
